# Reference: patent publication US20240408169A1 (priority 2023, published 2024)
# pIC50: −log10 of the molar value. Where two headings read alike, the source gives them in different places. *1 amine or outer side, *2 acyl side, *3 side chain or, on linkers, in order; H or OH if unused. Where a SMILES comes first, the peptide text is derived from it. Bridges are numbered along the chain shown (N, C = ends). [ ]: non-standard residue; d: D form. The star is where a group is joined. X126 = CC(C)C(=O)N1[C@H]2COC[C@@H]1C=C(c1ccc(F)cc1C[C@@H](C(=O)[*:2])N(C)[*:1])C2; NMePhe(2-(4-MorPh),5-Cl) = CN[C@@H](Cc1cc(Cl)ccc1-c1ccc(N2CCOCC2)cc1)C(=O)O; X150 = CC(C)C(=O)N1C2C=C(c3ccc(F)cc3C[C@@H](C(=O)[*:2])N(C)[*:1])CC1CC2; X191 = CN([C@@H](Cc1cc(Cl)ccc1-c1ccc(N2CCOCC2)c(F)c1F)C(=O)[*:2])[*:1]; X212 = CN1CCC(Oc2ccc(-c3ccc(Cl)cc3C[C@@H](C(=O)[*:2])N(C)[*:1])cn2)CC1; X142 = CN([C@@H](Cc1cc(Cl)ccc1C1=CCN(S(C)(=O)=O)CC1)C(=O)[*:2])[*:1]; NMehhhLys(Me) = CN([C@@H](CCCCCCCN(C)[*:3])C(=O)[*:2])[*:1]; X174 = CN([C@@H](Cc1cc(Cl)cnc1-c1cnn(C)c1)C(=O)[*:2])[*:1]; X131 = CN([C@@H](Cc1cc(F)cnc1-c1cnn(C)c1)C(=O)[*:2])[*:1]; X22 = CN([C@@H](Cc1cc(Cl)ccc1-c1cnn(C)c1)C(=O)[*:2])[*:1]; X194 = CN([C@@H](Cc1cc(Cl)ccc1-c1ccnnc1)C(=O)[*:2])[*:1]; X176 = CN([C@@H](Cc1cc(F)ccc1-c1cccnc1)C(=O)[*:2])[*:1]; NMe(hhhLys) = CN([C@@H](CCCCCCCN[*:3])C(=O)[*:2])[*:1]; NMe3Pal(2-OMe,5-Cl) = CN[C@@H](Cc1cc(Cl)cnc1OC)C(=O)O; Oxane2carbonyl(2R-CF3) = O=C([C@@]1(C(F)(F)F)CCCCO1)*; X152 = CN([C@@H](Cc1cc(Cl)ccc1OC1CC1)C(=O)[*:2])[*:1]; Cyclobutanecarbonyl(1-CF3) = O=C(C1(C(F)(F)F)CCC1)*; cBuCO(3,3-F2-1-CF3) = O=C(C1(C(F)(F)F)CC(F)(F)C1)*; X25 = CCOc1ncc(Cl)cc1C[C@@H](C(=O)[*:2])N(C)[*:1]; Pro(trans-4-F) = O=C(O)[C@@H]1C[C@@H](F)CN1; Pivaloyl(3,3,3-F3) = CC(C)(C(=O)*)C(F)(F)F; Pro(4,4-F2) = O=C(O)[C@@H]1CC(F)(F)CN1; Gly(cPr) = N[C@H](C(=O)O)C1CC1
# Columns and labels:
# [1] = molecular target: T1, CyclinA2/CDK2 (Homo sapiens, UniProt P20248); assay: Fluorescence Polarization (FP) competitive binding assay, Cyclin A2/Cdk2;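 also: plates equilibrated two hours at room temperature before polarization reading, IC50 fitted from eight-concentration compound titration curves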
# T1 construct: purchased CRELUX Protein Services
# [2] = molecular target: T2, CyclinB1/CDK1 (Homo sapiens, UniProt P14635); assay: Fluorescence Polarization (FP) competitive binding assay, Cyclin B1/Cdk1;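 also: fluorescence polarization read after equilibration at room temperature, with IC50 taken from serially diluted dose-response curves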
# T2 construct: purchased Eurofins, discovery 14-450
# [3] = molecular target: T3, CyclinE1/CDK2 (Homo sapiens, UniProt P24864); assay: Fluorescence Polarization (FP) competitive binding assay, Cyclin E1/Cdk2;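 also: readings taken after two-hour equilibration at room temperature in HEPES buffer with NaCl, DTT, NP-40 and BSA, IC50 fitted from eight-concentration serial dilution series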
# T3 construct: purchased Eurofins, discovery 14-475
# [4] = system: NCI-H1048 cells; assay: MTT proliferation assay, NCI-H1048; format: cell-based; conditions: 5 days compound exposure, 1:3 serial dilution starting at 10 μM;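 also: Dose-response in 96-well plates over 8 or 10 concentration points, with exposure spanning 3-4 cell doublings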
# [5] = system: OVCAR3 cells; assay: MTT proliferation assay, OVCAR3; format: cell-based; conditions: 5 days compound exposure, 1:3 serial dilution starting at 10 μM;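 also: compound given as an 8- or 10-point series, one day after plating, with exposure covering roughly 3-4 cell doublings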
# [6] = 8 nM Cyclin A2/Cdk2, 2 nM FAM probe, average of 2-3 independent experiments, read-out: Cyclin A FP IC50
# [7] = 10 nM Cyclin B1/Cdk1, 2 nM FAM probe; average of 2-3 independent experiments; read-out: Cyclin B FP IC50
# [8] = 10 nM Cyclin E1/Cdk2, 2 nM FAM probe, average of 2-3 independent experiments, read-out: Cyclin E FP IC50
# [9] = read-out: Cyclin B FP IC50; 10 nM Cyclin B1/Cdk1, 2 nM FAM probe; average of 2-3 independent experiments
# [10] = read-out: Cyclin A FP IC50, 8 nM Cyclin A2/Cdk2, 2 nM FAM probe, average of 2-3 independent experiments
SMILES,"pIC50 [1, 6]","pIC50 [2, 7]","pIC50 [3, 8]",GI50 [4] [nM],GI50 [5] [nM],pIC50 [1],"pIC50 [2, 9]",pIC50 [3],"pIC50 [1, 10]"
"CCOc1ncc(Cl)cc1C[C@H]1C(=O)N(C)CCCCCCC[C@H](N(C)C(=O)[C@@H](NC(=O)[C@@H]2C[C@@H](F)CN2C(=O)C(C)(C)C(F)(F)F)C2CC2)C(=O)N[C@@H](CC(C)C)C(=O)N1C [Example 269] ({Pivaloyl(3,3,3-F3)}-[Pro(trans-4-F)][Gly(cPr)][NMehhhLys(Me)]L[X25]; lactam 3-C)",7.22,7.70,7.00,30,30,–,–,–,–
"CC(C)C[C@@H]1NC(=O)[C@@H](N(C)C(=O)[C@@H](NC(=O)[C@@H]2C[C@@H](F)CN2C(=O)C2(C(F)(F)F)CC(F)(F)C2)C2CC2)CCCCCCCN(C)C(=O)[C@H](Cc2cc(Cl)ccc2-c2ccc(OC3CCN(C)CC3)nc2)N(C)C1=O [Example 396] ({cBuCO(3,3-F2-1-CF3)}-[Pro(trans-4-F)][Gly(cPr)][NMehhhLys(Me)]L[X212]; lactam 3-C)",7.52,7.70,5.60,20,10,–,–,–,–
"CC(C)C[C@@H]1NC(=O)[C@@H](N(C)C(=O)[C@@H](NC(=O)[C@@H]2CC(F)(F)CN2C(=O)C2(C(F)(F)F)CC(F)(F)C2)C2CC2)CCCCCCCN(C)C(=O)[C@H](Cc2cc(Cl)ccc2-c2cnn(C)c2)N(C)C1=O [Example 343] ({cBuCO(3,3-F2-1-CF3)}-[Pro(4,4-F2)][Gly(cPr)][NMehhhLys(Me)]L[X22]; lactam 3-C)",7.70,7.70,6.17,10,10,–,–,–,–
"CC(C)C[C@@H]1NC(=O)[C@@H](N(C)C(=O)[C@@H](NC(=O)[C@@H]2C[C@@H](F)CN2C(=O)C2(C(F)(F)F)CC(F)(F)C2)C2CC2)CCCCCCCNC(=O)[C@H](Cc2cc(Cl)ccc2OC2CC2)N(C)C1=O [Example 311] ({cBuCO(3,3-F2-1-CF3)}-[Pro(trans-4-F)][Gly(cPr)][NMe(hhhLys)]L[X152]; lactam 3-C)",7.30,7.70,6.70,20,30,–,–,–,–
"CC(C)C[C@@H]1NC(=O)[C@@H](N(C)C(=O)[C@@H](NC(=O)[C@@H]2C[C@@H](F)CN2C(=O)C2(C(F)(F)F)CC(F)(F)C2)C2CC2)CCCCCCCNC(=O)[C@H](Cc2cc(Cl)ccc2C2=CCN(S(C)(=O)=O)CC2)N(C)C1=O [Example 284] ({cBuCO(3,3-F2-1-CF3)}-[Pro(trans-4-F)][Gly(cPr)][NMe(hhhLys)]L[X142]; lactam 3-C)",7.70,7.70,5.76,10,10,–,–,–,–
"CC(C)C[C@@H]1NC(=O)[C@@H](N(C)C(=O)[C@@H](NC(=O)[C@@H]2C[C@@H](F)CN2C(=O)C2(C(F)(F)F)CC(F)(F)C2)C2CC2)CCCCCCCNC(=O)[C@H](Cc2cc(Cl)ccc2-c2ccc(N3CCOCC3)cc2)N(C)C1=O [Example 333] ({cBuCO(3,3-F2-1-CF3)}-[Pro(trans-4-F)][Gly(cPr)][NMe(hhhLys)]L[NMePhe(2-(4-MorPh),5-Cl)]; lactam 3-C)",7.70,7.70,5.94,10,10,–,–,–,–
CC(C)C[C@@H]1NC(=O)[C@@H](N(C)C(=O)[C@@H](NC(=O)[C@@H]2C[C@@H](F)CN2C(=O)C2(C(F)(F)F)CCC2)C2CC2)CC=CCCCCN(C)C(=O)[C@H](Cc2cc(F)cnc2OC2CC2)N(C)C1=O [Example 133],6.33,7.70,6.47,340,260,–,–,–,–
"CC(C)C[C@@H]1NC(=O)[C@@H](N(C)C(=O)[C@@H](NC(=O)[C@@H]2C[C@@H](F)CN2C(=O)C2(C(F)(F)F)CC(F)(F)C2)C2CC2)CCCCCCCN(C)C(=O)[C@H](Cc2cc(F)ccc2C2=CC3CCC(C2)N3C(=O)C(C)C)N(C)C1=O (stereo partly drawn) [Example 150] ({cBuCO(3,3-F2-1-CF3)}-[Pro(trans-4-F)][Gly(cPr)][NMehhhLys(Me)]L[X150]; lactam 3-C)",7.70,7.70,6.68,20,40,–,–,–,–
"CC(C)C[C@@H]1NC(=O)[C@@H](N(C)C(=O)[C@@H](NC(=O)[C@@H]2C[C@@H](F)CN2C(=O)C2(C(F)(F)F)CC(F)(F)C2)C2CC2)CCCCCCCN(C)C(=O)[C@H](Cc2cc(F)ccc2C2=C[C@H]3COC[C@@H](C2)N3C(=O)C(C)C)N(C)C1=O [Example 328] ({cBuCO(3,3-F2-1-CF3)}-[Pro(trans-4-F)][Gly(cPr)][NMehhhLys(Me)]L[X126]; lactam 3-C)",7.70,7.70,6.68,10,10,–,–,–,–
"CC(C)C[C@@H]1NC(=O)[C@@H](N(C)C(=O)[C@@H](NC(=O)[C@@H]2C[C@@H](F)CN2C(=O)C2(C(F)(F)F)CC(F)(F)C2)C2CC2)CCCCCCCN(C)C(=O)[C@H](Cc2cc(F)ccc2-c2cccnc2)N(C)C1=O [Example 271] ({cBuCO(3,3-F2-1-CF3)}-[Pro(trans-4-F)][Gly(cPr)][NMehhhLys(Me)]L[X176]; lactam 3-C)",7.52,7.70,6.62,10,10,–,–,–,–
CC(C)C[C@@H]1NC(=O)[C@@H](N(C)C(=O)[C@@H](NC(=O)[C@@H]2C[C@@H](F)CN2C(=O)C2(C(F)(F)F)CCC2)C2CC2)CCCCCCCN(C)C(=O)[C@H](Cc2cc(F)cnc2-c2cnn(C)c2)N(C)C1=O [Example 245] ({Cyclobutanecarbonyl(1-CF3)}-[Pro(trans-4-F)][Gly(cPr)][NMehhhLys(Me)]L[X131]; lactam 3-C),–,–,–,80,20,7.40,7.70,6.66,–
CC(C)C[C@@H]1NC(=O)[C@@H](NC(=O)CNC(=O)[C@@H]2C[C@@H](F)CN2C(=O)C2(C(F)(F)F)CC2)CC=CCCCCNC(=O)[C@H](Cc2cc(Cl)ccc2Cl)N(C)C1=O [Example 3],6.21,7.70,6.17,460,720,–,–,–,–
"CC(C)C[C@@H]1NC(=O)[C@@H](N(C)C(=O)[C@@H](NC(=O)[C@@H]2C[C@@H](F)CN2C(=O)C2(C(F)(F)F)CC(F)(F)C2)C2CC2)CCCCCCCN(C)C(=O)[C@H](Cc2cc(Cl)ccc2-c2ccc(N3CCOCC3)c(F)c2F)N(C)C1=O [Example 386] ({cBuCO(3,3-F2-1-CF3)}-[Pro(trans-4-F)][Gly(cPr)][NMehhhLys(Me)]L[X191]; lactam 3-C)",7.70,7.70,6.05,30,20,–,–,–,–
"CC(C)C[C@@H]1NC(=O)[C@@H](N(C)C(=O)[C@@H](NC(=O)[C@@H]2C[C@@H](F)CN2C(=O)C(C)(C)C(F)(F)F)C2CC2)CCCCCCCN(C)C(=O)[C@H](Cc2cc(Cl)ccc2-c2cnn(C)c2)N(C)C1=O [Example 204] ({Pivaloyl(3,3,3-F3)}-[Pro(trans-4-F)][Gly(cPr)][NMehhhLys(Me)]L[X22]; lactam 3-C)",–,–,–,10,10,–,7.70,6.80,7.70
"CC(C)C[C@@H]1NC(=O)[C@@H](N(C)C(=O)[C@@H](NC(=O)[C@@H]2C[C@@H](F)CN2C(=O)C2(C(F)(F)F)CC(F)(F)C2)C2CC2)CCCCCCCN(C)C(=O)[C@H](Cc2cc(Cl)ccc2-c2ccnnc2)N(C)C1=O [Example 292] ({cBuCO(3,3-F2-1-CF3)}-[Pro(trans-4-F)][Gly(cPr)][NMehhhLys(Me)]L[X194]; lactam 3-C)",7.22,7.70,5.54,70,110,–,–,–,–
CC(C)C[C@@H]1NC(=O)[C@@H](N(C)C(=O)[C@@H](NC(=O)[C@@H]2C[C@@H](F)CN2C(=O)C2(C(F)(F)F)CC(F)(F)C2)C2CC2)CC=CCCCCNC(=O)[C@H](Cc2cc(Cl)ccc2C2=CC[C@H](O)CC2)N(C)C1=O [Example 24],7.22,7.70,5.80,90,170,–,–,–,–
CC(=O)N1[C@H]2CC[C@@H]1C=C(c1ccc(F)cc1C[C@H]1C(=O)N(C)CCCCCCC[C@H](N(C)C(=O)[C@@H](NC(=O)[C@@H]3C[C@@H](F)CN3C(=O)C3(C(F)(F)F)CC(F)(F)C3)C3CC3)C(=O)N[C@@H](CC(C)C)C(=O)N1C)C2 [Example 58],–,–,–,10,10,–,7.70,6.21,7.70
CC(C)C[C@@H]1NC(=O)[C@@H](N(C)C(=O)[C@@H](NC(=O)[C@@H]2C[C@@H](F)CN2C(=O)[C@@]2(C(F)(F)F)CCCCO2)C2CC2)CCCCCCCN(C)C(=O)[C@H](Cc2cc(Cl)cnc2-c2cnn(C)c2)N(C)C1=O [Example 248] ({Oxane2carbonyl(2R-CF3)}-[Pro(trans-4-F)][Gly(cPr)][NMehhhLys(Me)]L[X174]; lactam 3-C),–,–,–,40,20,–,7.70,7.00,7.70
"COc1ncc(Cl)cc1C[C@H]1C(=O)N(C)CCCCCCC[C@H](N(C)C(=O)[C@@H](NC(=O)[C@@H]2C[C@@H](F)CN2C(=O)C(C)(C)C(F)(F)F)C2CC2)C(=O)N[C@@H](CC(C)C)C(=O)N1C [Example 268] ({Pivaloyl(3,3,3-F3)}-[Pro(trans-4-F)][Gly(cPr)][NMehhhLys(Me)]L[NMe3Pal(2-OMe,5-Cl)]; lactam 3-C)",7.22,7.70,7.00,20,10,–,–,–,–
